The text below walks through data of patent US6806085B1, “2-deoxyglucose-6-phosphate (2-DOG-6-P) phosphatase DNA sequences as selection marker in plants” (IPK Gatersleben, priority 1997, dated 2004).

Assay [1] concerns pea calli. Description: Pea calli on 0.075% 2-DOG containing medium. Format: cell-based, Pisum sativum. The text has this: Calli of pea plants Pisum sativum were placed on 0.075% 2-DOG containing B5 medium. A: calllus of untransformed plant on 0.075% 2-DOG; B: callus of a plant expressing the DOG^R1 gene under the control of the 35S promoter on 0.075% 2-DOG. The construct described in Example 10 was transferred to pea plants of Pisum sativum by Agrobacteria-mediated transformation. Calli of transformed and untransformed plants were placed on 0.075% 2-DOG containing medium.

Assay [2] relates to Nicotiana tabacum cells. The following applies: cited from earlier work.
Assay [3] deals with potato shoots. Description: Potato shoots on 0.05% 2-DOG containing MS medium. The format is in vivo, Solanum tuberosum var. Solara. The following applies: five weeks. An excerpt: Shoots of potato plants Solanum tuberosum var. Solara were placed on 0.05% 2-DOG containing MS medium. A: five weeks old shoot of an untransformed plant; B: five weeks old shoot of a plant expressing the DOG^R1 gene under the control of the 35S promoter. The construct described in Example 3 was transferred to potato plants Solanum tuberosum var. Solara by Agrobacteria-mediated transformation. The regenerated shoots were cultivated on selection-free medium. After six weeks the tips of the shoots were transferred to 0.05% 2-DOG containing MS medium.

In assay [4] the test system is tobacco leaf disks. Description: Toxicity of 2-DOG for plant cells, tobacco leaf pieces on 2-DOG-containing MS medium. Format: cell-based, Nicotiana tabacum Var. Samsun NN. The following applies: MS medium with 0.01 to 0.5% 2-DOG, two weeks. The text has this: (§1) FIGS. 2A and 2B Cultivation of tobacco (Nicotiana tabacum Var. Samsun NN, A-D) and potato (Solanum tuberosum var. Solara, E-H) leaf disks on 2-DOG-containing MS medium. A, E: control MS medium without addition of 2-deoxyglucose; B, F: MS medium with 0.05% 2-DOG; C, G:MS medium with 0.1% 2-DOG; D, H: MS medium with 0.5% 2-DOG. For the detection of the toxicity of 2-DOG leaf pieces (about 1 cm^2) of sterile tobacco and potato plants were cultivated for two weeks on Murashige and Skoog medium (Murashige & Skoog (1962) Physiol. Plant. 15, 473), to which 0.01 to 0.5% 2-DOG had been added.

Assay [5] relates to tobacco seedlings. The assay is described as follows: Tobacco seedlings on 0.05% 2-DOG containing MS medium. The settings on record: four weeks. Format: in vivo, Nicotiana tabacum Var. Samsun NN. The text has this:
Seeds of Nicotiana tabacum Var. Samsun NN were sterilized and placed on 0.05% 2-DOG containing MS medium. A: four weeks old seedlings of an untransformed plant; B: four weeks old seedlings of a plant expressing the DOG^R1 gene under the control of the 35S promoter. In order to detect the resistance of seedlings expressing the DOG^R1 gene seeds of the tobacco plants described in Examples 5 and 6 as well as seeds of untransformed tobacco plants were sterilized and placed on 0.05% 2-DOG containing MS medium.

Assay [6] concerns yeast cells. The following applies: addition of 2-DOG; cited from earlier work.
In assay [7] the test system is Picea excelsa (spruce) cells. The settings on record: cited from earlier work.
The subject of assay [8] is root growth of many plants. The following applies: addition of 2-DOG; cited from earlier work.
In assay [9] the test system is potato leaf disks. Description: Toxicity of 2-DOG for plant cells, potato leaf pieces on 2-DOG-containing MS medium. The format is cell-based, Solanum tuberosum var. Solara. The following applies: MS medium with 0.01 to 0.5% 2-DOG, two weeks.
Source text: as §1

Turning to `O=CC[C@@H](O)[C@H](O)[C@H](O)CO` [2-DOG, 2-deoxyglucose], the “shoot development from callus” value in assay [1] (callus of untransformed plants) is given as “did not develop Shoots”; in [1] (callus transformed with DOG^R1 gene under 35S promoter), “developed shoots”. Further, the “cell growth in tissue culture” value in assay [2] and in [7] was “strongly inhibited” in each case. For the same molecule, the shoot growth result was “exhibits root and stem growth” in [3] (shoot expressing DOG^R1 gene under 35S promoter); “has not grown” in [3] (shoot of untransformed plant). Also, the “effect on leaf disks” value in assay [4] and in assay [9] was “caused the leaf disks to die” throughout. Moreover, the values for the seedling survival result in assay [5] (seedlings expressing DOG^R1 gene under 35S promoter) and in assay [5] (seedlings of untransformed plants) were “vital” and “died at an early stage of development”, respectively. Also, the “respiration and growth of cells” value in assay [6] is “inhibition of the respiration and the growth of cells”. Also, the root growth result in assay [8] is “inhibits the root growth”.
